Measurements taken from patent US11274083B2, “Substituted thiophenyl uracils, salts thereof and the use thereof as herbicidal agents” (Syngenta Crop Protection AG, priority 2017, dated 2022).

Key:
Assay type in all cases: in vivo
[1] = test system: Digitaria sanguinalis; experiment: Herbicidal action post-emergence, greenhouse pot test; conditions: application rate 20 g/ha
[2] = test system: Glycine max; experiment: Crop compatibility post-emergence, greenhouse pot test
In short: (§1)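 Pot-grown plants in sandy loam, greenhouse, sprayed post-emergence at the one-leaf stage (2–3 weeks after sowing) with WP or EC formulations as aqueous spray plus 0.5% additive at 600 L/ha. Damage scored visually after about 3 weeks versus untreated controls, in % (0% = like control, 100% = dead).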

[3] = test system: Oryza sativa; experiment: as above
In short: as §1

[4] = test system: Triticum aestivum; experiment: as above
In short: as §1

[5] = test system: Stellaria media; experiment: Herbicidal action post-emergence, greenhouse pot test
In short: (§2)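 Efficacy is a visual percentage, 0% like untreated and 100% dead, read about 3 weeks after treatment under optimal greenhouse growth. Treatment was a post-emergence spray of aqueous WP or EC preparations at 80 g/ha or lower with 0.5% additive.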

[6] = test system: Matricaria inodora; experiment: as above
In short: as §2

[7] = test system: Abutilon theophrasti; experiment: as above
In short: as §2

[8] = test system: Setaria viridis; experiment: as above
In short: as §2

[9] = test system: Veronica persica; experiment: as above
In short: as §2

[10] = test system: Echinochloa crus-galli; experiment: as above
In short: as §2

[11] = test system: Lolium rigidum; experiment: as above
In short: as §2

[12] = test system: Viola tricolor; experiment: as above
In short: as §2

[13] = test system: Polygonum convolvulus; experiment: as above
In short: as §2

[14] = test system: Pharbitis purpurea; experiment: as above
In short: as §2

[15] = test system: Amaranthus retroflexus; experiment: as above
In short: as §2

[16] = test system: Alopecurus myosuroides; experiment: as above; conditions: scored visually after about 3 weeks vs untreated controls
In short: as §2

[17] = test system: Matricaria inodora; experiment: Herbicidal action pre-emergence, greenhouse pot test; conditions: application rate 320 g/ha
[18] = test system: Stellaria media; experiment: as above; conditions: application rate 320 g/ha
In short: (§3)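 Soil-applied pre-emergence treatment: aqueous suspension or emulsion of WP or EC formulation, 0.5% additive, water equivalent to 600 L/ha, dose of 320 g/ha or lower. Readout is visual percent efficacy after ~3 weeks, where 0% equals control plants.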

[19] = test system: Abutilon theophrasti; experiment: as above; conditions: application rate 320 g/ha
In short: as §3

[20] = test system: Setaria viridis; experiment: as above; conditions: application rate 320 g/ha
In short: as §3

[21] = test system: Veronica persica; experiment: as above; conditions: application rate 320 g/ha
In short: as §3

[22] = test system: Echinochloa crus-galli; experiment: as above; conditions: application rate 320 g/ha
In short: as §3

[23] = test system: Lolium rigidum; experiment: as above; conditions: application rate 320 g/ha
In short: as §3

[24] = test system: Viola tricolor; experiment: as above; conditions: application rate 320 g/ha
In short: as §3

[25] = test system: Polygonum convolvulus; experiment: as above; conditions: application rate 320 g/ha
In short: as §3

[26] = test system: Pharbitis purpurea; experiment: as above; conditions: application rate 320 g/ha
In short: as §3

[27] = test system: Hordeum murinum; experiment: as above; conditions: application rate 320 g/ha
In short: as §3

[28] = test system: Amaranthus retroflexus; experiment: as above; conditions: application rate 80 g/ha
In short: as §3

[29] = test system: Avena fatua; experiment: as above; conditions: application rate 320 g/ha
In short: as §3

[30] = test system: Alopecurus myosuroides; experiment: as above; conditions: application rate 320 g/ha
In short: as §3

[31] = test system: Cyperus esculentus; experiment: as above; conditions: application rate 320 g/ha
In short: as §3

[32] = test system: Zea mays; experiment: Crop compatibility post-emergence, greenhouse pot test; conditions: application rate 80 g/ha
In short: as §1

[33] = test system: Avena fatua; experiment: Herbicidal action post-emergence, greenhouse pot test; conditions: application rate 80 g/ha
In short: as §2

CNC(=O)CCOC(=O)C(C)Sc1cc(-n2c(=O)cc(C(F)(F)F)n(C)c2=O)c(F)cc1Cl (stereo not shown) [I.1-152]
20%: Glycine max (Efficacy in %) ([2]; application rate 5 g/ha) | Triticum aestivum (Efficacy in %) ([4]; application rate 5 g/ha)
100%: Digitaria sanguinalis (Efficacy in %) [1] | Stellaria media (Efficacy in %) ([5]; application rate 20 g/ha) | Matricaria inodora (Efficacy in %) ([6]; application rate 20 g/ha) | Abutilon theophrasti (Efficacy in %) ([7]; application rate 20 g/ha) | Setaria viridis (Efficacy in %) ([8]; application rate 20 g/ha) | Veronica persica (Efficacy in %) ([9]; application rate 20 g/ha) | Echinochloa crus-galli (Efficacy in %) ([10]; application rate 20 g/ha) | Viola tricolor (Efficacy in %) ([12]; application rate 20 g/ha) | Polygonum convolvulus (Efficacy in %) ([13]; application rate 20 g/ha) | Pharbitis purpurea (Efficacy in %) ([14]; application rate 20 g/ha) | Amaranthus retroflexus (Efficacy in %) ([15]; application rate 20 g/ha)
80%: Lolium rigidum (Efficacy in %) ([11]; application rate 20 g/ha) | Alopecurus myosuroides (Efficacy in %) ([16]; application rate 20 g/ha)
10%: Oryza sativa (Efficacy in %) ([3]; application rate 5 g/ha)

CC(Sc1cc(-n2c(=O)cc(C(F)(F)F)n(C)c2=O)c(F)cc1Cl)C(=O)OCC(=O)N(C)C (stereo not shown) [I.1-241]
90%: Lolium rigidum (Efficacy in %) ([11]; application rate 80 g/ha)
10%: Glycine max (Efficacy in %) ([2]; application rate 5 g/ha) | Oryza sativa (Efficacy in %) ([3]; application rate 5 g/ha) | Triticum aestivum (Efficacy in %) ([4]; application rate 5 g/ha)
100%: Matricaria inodora (Efficacy in %) [17] | Stellaria media (Efficacy in %) ([5]; application rate 80 g/ha) | Matricaria inodora (Efficacy in %) ([6]; application rate 80 g/ha) | Abutilon theophrasti (Efficacy in %) ([7]; application rate 80 g/ha) | Setaria viridis (Efficacy in %) ([8]; application rate 80 g/ha) | Veronica persica (Efficacy in %) ([9]; application rate 80 g/ha) | Echinochloa crus-galli (Efficacy in %) ([10]; application rate 80 g/ha) | Viola tricolor (Efficacy in %) ([12]; application rate 80 g/ha) | Polygonum convolvulus (Efficacy in %) ([13]; application rate 80 g/ha) | Pharbitis purpurea (Efficacy in %) ([14]; application rate 80 g/ha) | Amaranthus retroflexus (Efficacy in %) ([15]; application rate 80 g/ha) | Stellaria media (Efficacy in %) [18] | Abutilon theophrasti (Efficacy in %) [19] | Setaria viridis (Efficacy in %) [20] | Veronica persica (Efficacy in %) [21] | Echinochloa crus-galli (Efficacy in %) [22] | Lolium rigidum (Efficacy in %) [23] | Viola tricolor (Efficacy in %) [24] | Polygonum convolvulus (Efficacy in %) [25] | Pharbitis purpurea (Efficacy in %) [26] | Hordeum murinum (Efficacy in %) [27] | Amaranthus retroflexus (Efficacy in %) [28] | Avena fatua (Efficacy in %) [29] | Alopecurus myosuroides (Efficacy in %) [30] | Cyperus esculentus (Efficacy in %) [31]

CC(Sc1cc(-n2c(=O)cc(C(F)(F)F)n(C)c2=O)c(F)cc1Cl)C(=O)OCC1CCC(=O)N1 (stereo not shown) [I.1-255]
20%: Glycine max (Efficacy in %) ([2]; application rate 20 g/ha)
10%: Triticum aestivum (Efficacy in %) ([4]; application rate 20 g/ha) | Zea mays (Efficacy in %) [32]
0%: Oryza sativa (Efficacy in %) ([3]; application rate 80 g/ha)
100%: Matricaria inodora (Efficacy in %) [17] | Stellaria media (Efficacy in %) ([5]; application rate 80 g/ha) | Matricaria inodora (Efficacy in %) ([6]; application rate 80 g/ha) | Abutilon theophrasti (Efficacy in %) ([7]; application rate 80 g/ha) | Setaria viridis (Efficacy in %) ([8]; application rate 80 g/ha) | Veronica persica (Efficacy in %) ([9]; application rate 80 g/ha) | Echinochloa crus-galli (Efficacy in %) ([10]; application rate 80 g/ha) | Lolium rigidum (Efficacy in %) ([11]; application rate 80 g/ha) | Viola tricolor (Efficacy in %) ([12]; application rate 80 g/ha) | Polygonum convolvulus (Efficacy in %) ([13]; application rate 80 g/ha) | Pharbitis purpurea (Efficacy in %) ([14]; application rate 80 g/ha) | Amaranthus retroflexus (Efficacy in %) ([15]; application rate 80 g/ha) | Stellaria media (Efficacy in %) [18] | Abutilon theophrasti (Efficacy in %) [19] | Setaria viridis (Efficacy in %) [20] | Veronica persica (Efficacy in %) [21] | Echinochloa crus-galli (Efficacy in %) [22] | Lolium rigidum (Efficacy in %) [23] | Viola tricolor (Efficacy in %) [24] | Polygonum convolvulus (Efficacy in %) [25] | Pharbitis purpurea (Efficacy in %) [26] | Hordeum murinum (Efficacy in %) [27] | Amaranthus retroflexus (Efficacy in %) [28]
80%: Avena fatua (Efficacy in %) [33]
90%: Alopecurus myosuroides (Efficacy in %) ([16]; application rate 80 g/ha) | Avena fatua (Efficacy in %) [29] | Alopecurus myosuroides (Efficacy in %) [30]
